Measurements as given in patent publication US20070128217A1 (priority 2003, published 2007).

How the values were obtained:
[1] = system: antibodies in sera from SARS patients (sera 1a, 1b, 2, 6, 37, 62, London, SARS-yellow, SARS-green); type: binding, human; set-up: Binding of serum 6 to linear peptides of protein X1 of SARS-CoV Urbani / Binding of serum 37 to linear peptides of protein X1 of SARS-CoV Urbani / Binding of serum 6 to looped/cyclic peptide (PEPSCAN-ELISA) / Binding of serum 37 to looped/cyclic peptide (PEPSCAN-ELISA) / Binding of serum 37 to looped/cyclic peptides of protein X1 of SARS-CoV Urbani / Binding of serum 6 to linear peptides of protein X2 / Binding of serum 37 to linear peptides of protein X2 / Binding of serum 37 to looped/cyclic peptides of protein X2 of SARS-CoV Urbani / Binding of serum 6 to linear peptides of protein M of SARS-CoV Urbani / Binding of serum 37 to linear peptides of protein M of SARS-CoV Urbani / Binding of serum 6 to looped/cyclic peptides of protein M of SARS-CoV Urbani / Binding of serum 37 to looped/cyclic peptides of protein M of SARS-CoV Urbani / Binding of serum 6 to linear peptides of protein X3 of SARS-CoV Urbani / Binding of serum 37 to linear peptides of protein X3 of SARS-CoV Urbani / Binding of serum 37 to looped/cyclic peptides of protein X3 of SARS-CoV Urbani / Binding of serum 6 to linear peptides of protein X4 of SARS-CoV Urbani / Binding of serum 37 to linear peptides of protein X4 of SARS-CoV Urbani / Binding of serum 37 to looped/cyclic peptides of protein X4 of SARS-CoV Urbani / Binding of serum 6 to linear peptides of protein X5 of SARS-CoV Urbani / Binding of serum 37 to linear peptides of protein X5 of SARS-CoV Urbani / Binding of serum 37 to looped/cyclic peptides of protein X5 of SARS-CoV Urbani / Binding of serum 6 to linear peptides of protein N of SARS-CoV Urbani / Binding of serum 37 to linear peptides of protein N of SARS-CoV Urbani / Binding of serum 6 to linear peptide (PEPSCAN-ELISA) / Binding of serum 1a to looped/cyclic peptides of protein N of SARS-CoV Urbani / Binding of serum 1b to looped/cyclic peptides of protein N of SARS-CoV Urbani / Binding of serum 2 to looped/cyclic peptides of protein N of SARS-CoV Urbani / Binding of serum 6 to looped/cyclic peptides of protein N of SARS-CoV Urbani / Binding of serum 37 to looped/cyclic peptides of protein N of SARS-CoV Urbani / Binding of serum 62 to looped/cyclic peptides of protein N of SARS-CoV Urbani / Binding of serum London to looped/cyclic peptides of protein N of SARS-CoV Urbani / Binding of serum SARS-green to looped/cyclic peptides of protein N of SARS-CoV Urbani: unit not given here
[2] = system: control sera (pooled serum of ten healthy LUMC hospital workers; commercial negative donor pooled serum from the Dutch bloodbank); type: binding, human; set-up: Binding of Control serum LUMC to linear peptides / Binding of Control serum Blood-bank to linear peptides / Binding of Control serum LUMC to looped peptides / Binding of Control Serum Blood-Bank to Looped peptides / Binding of Control serum LUMC to linear peptides of the protein M of SARS-CoV Urbani / Binding of Control serum Blood-bank to linear peptides of the protein M of SARS-CoV Urbani / Binding of Control serum LUMC to looped peptides of the protein M of SARS-CoV Urbani / Binding of Control Serum Blood-Bank to Looped peptides of the protein M of SARS-CoV Urbani: unit not given here
[3] = system: rabbit serum obtained by immunizing a rabbit with the SARS-CoV strain Frankfurt 1; type: binding; set-up: Binding of a rabbit serum to linear peptides / Binding of a rabbit serum to looped peptides / Rabbit serum linear peptides / Rabbit serum looped peptides / Binding of a rabbit serum to linear peptides of protein N of SARS-CoV Urbani (Rabbit serum linear peptides) / Binding of a rabbit serum to looped/cyclic peptides of protein N of SARS-CoV Urbani (Rabbit serum looped peptides): unit not given here
[4] = system: recombinant human anti-SARS-CoV antibody 03-018; type: binding; set-up: Binding of antibody 03-018 to linear peptides of the N protein of SARS-CoV Urbani / Binding of antibody 03-018 to looped/cyclic peptides of the N protein of SARS-CoV Urbani: unit not given here

Sequence	Binding of serum 1a to linear peptides of protein N of SARS-CoV Urbani [1]	Binding of serum 1a to looped/cyclic peptides of protein N of SARS-CoV Urbani [1]	Binding of serum 1b to linear peptides of protein N of SARS-CoV Urbani [1]	Binding of serum 1b to looped/cyclic peptides of protein N of SARS-CoV Urbani [1]	Binding of serum 2 to linear peptides of protein N of SARS-CoV Urbani [1]	Binding of serum 2 to looped/cyclic peptides of protein N of SARS-CoV Urbani [1]	Binding of serum 6 to linear peptides of protein N of SARS-CoV Urbani [1]	Binding of serum 6 to looped/cyclic peptides of protein N of SARS-CoV Urbani [1]	Binding of serum 37 to linear peptides of protein N of SARS-CoV Urbani [1]	Binding of serum 37 to looped/cyclic peptides of protein N of SARS-CoV Urbani [1]	Binding of serum 62 to linear peptides of protein N of SARS-CoV Urbani [1]	Binding of serum 62 to looped/cyclic peptides of protein N of SARS-CoV Urbani [1]	Binding of serum London to linear peptides of protein N of SARS-CoV Urbani [1]	Binding of serum London to looped/cyclic peptides of protein N of SARS-CoV Urbani [1]	Binding of serum SARS-green to looped/cyclic peptides of protein N of SARS-CoV Urbani [1]	Binding of serum SARS-yellow to looped/cyclic peptides of protein N of SARS-CoV Urbani [1]	Binding of a rabbit serum to linear peptides of protein N of SARS-CoV Urbani (Rabbit serum linear peptides) [3]	Binding of a rabbit serum to looped/cyclic peptides of protein N of SARS-CoV Urbani (Rabbit serum looped peptides) [3]	Binding of antibody 03-018 to linear peptides of the N protein of SARS-CoV Urbani [4]	Binding of antibody 03-018 to looped/cyclic peptides of the N protein of SARS-CoV Urbani [4]	other results
FFGMSRIGMEVTPSG	0.3	0.3	0.1	0.2	0.2	0.4	0.2	0.1	0.7	0.5	0.7	0.4	0.6	0.3	0.1	0.4	0.2	0.4	0.1	0.2	Binding of serum SARS-green to linear peptides of protein N of SARS-CoV Urbani [1]: 0.3; Binding of serum SARS-yellow to linear peptides of protein N of SARS-CoV Urbani [1]: 0.8; Control Serum Blood-Bank Looped peptides [2]: 0.5; Control serum Blood-bank linear peptides [2]: 0.8; Control serum LUMC linear peptides [2]: 0.7; Control serum LUMC looped peptides [2]: 0.5
FGDQDLIRQGTDYKH	–	0.4	–	0.3	–	0.4	–	0.2	–	0.7	–	0.6	–	0.4	0.7	0.5	0.1	0.5	0.1	0.2	Binding of serum 1a to linear peptide (PEPSCAN-ELISA) [1]: 0.3; Binding of serum 1b to linear peptide (PEPSCAN-ELISA) [1]: 0.2; Binding of serum 2 to linear peptide (PEPSCAN-ELISA) [1]: 0.2; Binding of serum 6 to linear peptide (PEPSCAN-ELISA) [1]: 0.2; Binding of serum 37 to linear peptide (PEPSCAN-ELISA) [1]: 0.7; Binding of serum 62 to linear peptide (PEPSCAN-ELISA) [1]: 0.7; Binding of serum London to linear peptide (PEPSCAN-ELISA) [1]: 0.6; Binding of serum SARS-green to linear peptide (PEPSCAN-ELISA) [1]: 0.7; Binding of serum SARS-yellow to linear peptide (PEPSCAN-ELISA) [1]: 0.6; Binding of Control Serum Blood-Bank to Looped peptides [2]: 0.6; Binding of Control serum Blood-bank to linear peptides [2]: 0.8; Binding of Control serum LUMC to linear peptides [2]: 0.7; Binding of Control serum LUMC to looped peptides [2]: 0.7
FGMSRIGMEVTPSGT	0.3	0.3	0.1	0.2	0.2	0.4	0.2	0.2	0.8	0.4	0.7	0.3	0.6	0.3	0.2	0.3	0.2	0.3	0.1	0.2	Binding of serum SARS-green to linear peptides of protein N of SARS-CoV Urbani [1]: 0.3; Binding of serum SARS-yellow to linear peptides of protein N of SARS-CoV Urbani [1]: 0.7; Control Serum Blood-Bank Looped peptides [2]: 0.5; Control serum Blood-bank linear peptides [2]: 0.8; Control serum LUMC linear peptides [2]: 0.7; Control serum LUMC looped peptides [2]: 0.5
